US6242438A, “3-Azetidinylalkylpiperidines or -pyrrolidines as tachykinin antagonists” (Pfizer Inc., priority 1996, dated 2001)

Target: T1, NK3 receptor (Cavia porcellus, UniProt P30098)
T1 construct: contractile effects of the selective NK3 receptor agonist senktide in the guinea-pig ileum; from tissue; host or cells: guinea-pig ileum
T1 sequence (P30098 1-440): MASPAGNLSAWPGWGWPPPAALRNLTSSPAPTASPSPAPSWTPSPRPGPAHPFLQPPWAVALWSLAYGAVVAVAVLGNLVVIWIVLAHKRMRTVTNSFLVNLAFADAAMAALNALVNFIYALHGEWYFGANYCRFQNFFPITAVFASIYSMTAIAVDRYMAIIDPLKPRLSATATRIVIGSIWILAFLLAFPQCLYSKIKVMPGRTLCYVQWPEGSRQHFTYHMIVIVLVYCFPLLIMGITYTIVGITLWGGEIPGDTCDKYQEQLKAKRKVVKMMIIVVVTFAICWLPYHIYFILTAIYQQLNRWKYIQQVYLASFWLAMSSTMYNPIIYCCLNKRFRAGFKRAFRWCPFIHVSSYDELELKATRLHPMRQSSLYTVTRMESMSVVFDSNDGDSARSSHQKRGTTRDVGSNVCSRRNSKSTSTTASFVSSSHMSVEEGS
Test: NK3 receptor antagonist activity in vitro: antagonism of contractile effects of senktide in guinea-pig ileum
Settings: antagonism of contractile effects of the selective NK3 receptor agonist senktide, read-out: pIC50 for NK3 activity (converted)
Description: The compounds of the formula (I) and their salts can be tested for NK3 receptor antagonist activity, in vitro, by testing their ability to antagonise the contractile effects of the selective NK3 receptor agonist senktide in the guinea-pig ileum using the method of Maggi et al, Br. J. Pharmacol., 101, 996-1000 (1 990).

- IC50: 3.98 nM
SMILES: NS(=O)(=O)N1CCN(C2CN(CCCC3(c4ccc(Cl)c(Cl)c4)CCCN(C(=O)c4ccccc4)C3)C2)CC1 (stereo not shown) [Example 2]
